Experimental data: patent US11299519B2, “Host cells and methods using a repressor polypeptide and an inducible promoter for gene expression” (The Regents of the University of California, priority 2015, dated 2022)

Tests used:
Eil-promoter = assay: Induction of Eil-promoter (EilR-regulated, reporter gene) by hydrophobic cations; format: cell-based, E. coli; settings: preliminary results for the leuco-form
Excerpt: A series of EilR-regulated promoters have been identified by creating a library that contains an eil-operator and randomized core promoter sequences coupled to a reporter gene. […] Subsequent optimizations have led to several Eil-promoters with improved properties.
The Eil- or Qac-promoters are useful as tools for monitoring real time oxidative stress. […] An Eil-promoter or Qac-promoter coupled with a reporter gene can serve as a signal-amplifying sensor for real time in vivo oxidative stress, which could be useful to monitor and understand physiological stress reactions. Similarly, heme catalyzes the oxidation of the colorless leucocrystal violet to its purple cation by reducing hydrogen peroxide. This colorful radical reaction is utilized in forensics to uncover removed blood stains. Crystal violet induces Eil-biosensors at concentrations that are much lower than the eye can detect. Such a sensor could be a sensitive tool for blood detection in forensic analyses.
Numbers in brackets indicate the concentration applied for induction (in μM).

SmvR = assay: RFP expression from an Eil-promoter regulated by EilR homologue SmvR; format: cell-based, Salmonella typhimurium; settings: in E. coli; eilO consensus operator
Excerpt: (§1) The EilR homologues SmvR (from Salmonella typhimurium) and KmrR (from Klebsiella BRL6-2) regulate RFP expression from an Eil-promoter in E. coli. Like EilR, these repressors bind to the eilO consensus operator and are induced e.g. by crystal violet.

KmrR = assay: RFP expression from an Eil-promoter regulated by EilR homologue KmrR; format: cell-based, Klebsiella BRL6-2; settings: in E. coli; eilO consensus operator
Excerpt: as §1

p1-promoter = assay: RFP expression from the p1-promoter in various bacteria; format: cell-based, Three different gram-negative bacteria; settings: same plasmid in all strains (BBR origin of replication)
Excerpt: All strains contain the same plasmid (BBR origin of replication).
The functionality of Eil-promoters is not restricted to E. coli and offers an expression platform in various host organisms. […] In addition to bacterial promoters, the eil operators can be used to control expression from phage promoters such as T7. […] RFP was expressed from a T7 promoter controlled either by an IPTG-inducible lac operator or an acridine orange-inducible eil operator. The chromosomal T7-RNA polymerase was expressed from a Lac-promoter in both cases (in E. coli BL21-DE3). In the future, T7 RNA-polymerase expression could also be controlled by an Eil-promoter. […] All strains contain the same plasmid (BBR origin of replication).

| Compound | induction of Eil-promoters (Eil-promoter) | induction of SmvR-regulated RFP expression from an Eil-promoter (SmvR) | induction of KmrR-regulated RFP expression from an Eil-promoter (KmrR) | RFP expression from the p1-promoter on induction (p1-promoter) |
| --- | --- | --- | --- | --- |
| CN(C)c1ccc(C(=C2C=CC(=[N+](C)C)C=C2)c2ccc(N(C)C)cc2)cc1 [crystal violet] | induces Eil-promoters at nanomolar concentrations | induced | induced | – |
| CN(C)c1ccc2cc3ccc(N(C)C)cc3nc2c1 [acridine orange] | – | – | – | express RFP from the p1-promoter |
| CN(C)c1ccc(C(c2ccc(N(C)C)cc2)c2ccc(N(C)C)cc2)cc1 [leucocrystal violet] | does not cause induction | – | – | – |
